Assay [1] concerns the target recombinant thioredoxin reductase 1 (TrxR1) (Homo sapiens (Human), UniProt Q16881). Nature of the assay: Inhibition of recombinant TrxR1 (DTNB assay). It is filed as biochemical. Particulars: 30 nM TrxR1, 250 μM NADPH, 15 minutes incubation, O.D. 412 nm, read-out: TrxR inhibition (IC50). How it is done:
(§1) Small molecule inhibition of recombinant thioredoxin reductase 1 (TrxR1) and gluthathione reductase (GR) was examined in 96-well plate format. 30 nM TrxR1 was incubated in the presence of 250 μM NADPH, 0.1 mg/ml BSA, and various concentrations of compound (1% DMSO final) in 50 mM Tris (pH 7.5) and 2 mM EDTA buffer for 15 minutes. Following the incubation period, 2 mM DTNB was added to each well and the change in O.D. at 412 nm was followed. Percent activity was determined using DMSO vehicle and no TrxR1 (blank) controls. 2 nM GR was incubated in the presence of 250 μM NADPH, 0.1 mg/ml BSA, and various concentrations of compounds (1% DMSO final) in 50 mM Tris (pH 7.5) and 2 mM EDTA buffer for 15 minutes. Following the incubation period, 1 mM GSSG was added to each well and the change in O.D. at 340 nm was followed. Percent activity was determined using DMSO vehicle and no GR (blank) controls.

A further assay has as its system U-87 MG. The experiment in a line: Cancer cell viability assay (MTT), U-87 MG. It is filed as cell-based. Particulars: Homo sapiens, 72 hrs, 4000 cells/well, 10% FBS media. How it is done:
(§2) Breast cancer and glioblastoma cell lines were plated 4000 cells/well in 96-well plates in the presence of 10% FBS media. The following day cells were treated with various concentrations of the compound of Example 1 (0.1% DMSO final) and incubated for 72 hrs. After the incubation An MTT assay was performed to access cell viability. Percent of viability was determined using DMSO vehicle and no cell (blank) controls.

For the next assay, the system named is MDA-MB-468. The experiment in a line: Cancer cell viability assay (MTT), MDA-MB-468. The format is cell-based. The note with it: Homo sapiens, 72 hrs, 4000 cells/well, 10% FBS media. How it is done:
as §2

In a further assay the test system is MDA-MB-231 cells. Nature of the assay: Breast cancer cell viability assay (Alamar Blue). It is filed as cell-based. Particulars: Homo sapiens, 72 hrs, 10% FBS media containing 25 nM selenite, 2000 cells/well. How it is done:
MDA-MB-231 cells were plated 2000 cells/well in 96-well black optical plates in the presence of 10% FBS media containing 25 nM selenite. The following day cells were treated with various concentrations of compounds (0.1% DMSO final) and incubated for 72 hrs. After the incubation Alamar Blue reagent was added to each well and incubated for additional 3 hrs. Fluorescence was read ex:530 nm/em:590 nm, and percent of viability was determined using DMSO vehicle and no cell (blank) controls.

The test system of the next assay is MDA-MB-231. Nature of the assay: Cancer cell viability assay (MTT), MDA-MB-231. The note with it: Homo sapiens, 72 hrs, 4000 cells/well, 10% FBS media. The format is cell-based. As for the experimental part:
as §2

For assay [2], the target named is recombinant gluthathione reductase (GR) (Homo sapiens (Human), UniProt P00390). The experiment in a line: Inhibition of recombinant GR (GSSG assay). The format is biochemical. Particulars: 2 nM GR, 250 μM NADPH, 15 minutes incubation, O.D. 340 nm. As for the experimental part:
as §1

Structures are written as SMILES.

By IC50 is commonly meant the concentration that gives 50% inhibition.

recombinant thioredoxin reductase 1 (TrxR1), sequence (Q16881 151-649): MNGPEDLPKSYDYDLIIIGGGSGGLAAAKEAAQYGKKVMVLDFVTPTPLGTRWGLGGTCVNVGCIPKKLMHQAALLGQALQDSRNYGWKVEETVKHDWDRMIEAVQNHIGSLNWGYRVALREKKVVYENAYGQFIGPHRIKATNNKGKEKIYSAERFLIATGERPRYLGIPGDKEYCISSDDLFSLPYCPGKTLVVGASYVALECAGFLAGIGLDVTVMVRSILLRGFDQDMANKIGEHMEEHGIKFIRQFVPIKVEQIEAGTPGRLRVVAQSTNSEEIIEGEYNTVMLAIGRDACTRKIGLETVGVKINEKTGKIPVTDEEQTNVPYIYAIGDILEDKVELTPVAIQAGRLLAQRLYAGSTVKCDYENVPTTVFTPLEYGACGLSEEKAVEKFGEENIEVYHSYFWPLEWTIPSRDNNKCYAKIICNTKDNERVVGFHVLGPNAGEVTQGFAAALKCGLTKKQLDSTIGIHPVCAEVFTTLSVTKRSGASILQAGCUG
recombinant gluthathione reductase (GR), sequence (P00390 44-522): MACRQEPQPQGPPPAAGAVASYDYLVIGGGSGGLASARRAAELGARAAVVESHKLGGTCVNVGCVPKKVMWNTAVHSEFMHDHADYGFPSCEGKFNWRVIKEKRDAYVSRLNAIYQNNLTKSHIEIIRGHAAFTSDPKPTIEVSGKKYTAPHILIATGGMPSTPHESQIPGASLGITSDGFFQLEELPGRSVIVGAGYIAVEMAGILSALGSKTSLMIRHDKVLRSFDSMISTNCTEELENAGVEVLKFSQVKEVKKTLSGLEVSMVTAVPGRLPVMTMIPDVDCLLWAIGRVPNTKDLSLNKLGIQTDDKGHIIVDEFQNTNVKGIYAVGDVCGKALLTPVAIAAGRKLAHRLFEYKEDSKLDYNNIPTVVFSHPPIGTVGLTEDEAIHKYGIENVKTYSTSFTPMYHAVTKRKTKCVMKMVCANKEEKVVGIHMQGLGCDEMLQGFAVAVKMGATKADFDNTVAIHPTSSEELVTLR

As for `COc1ccc([N+](=O)[O-])c([S+]([O-])c2ccc(Cl)cc2)n1` (stereo not drawn) [Example 1, 2-((4-Chlorophenyl)sulfinyl)-6-methoxy-3-nitropyridine], the IC50 in assay [1] came out at 0.00316 µM; in the assay on U-87 MG, 6.76 µM; in the assay with MDA-MB-468 it was 3.86 µM; in the assay on MDA-MB-231 cells, 2.99 µM; with MDA-MB-231, 5.26 µM; in assay [2], 41.3 µM.

Values taken from patent publication US11208384B2, “Sulfinylpyridines and their use in the treatment of cancer” (Oblique Therapeutics AB, priority 2017, dated 2021).
